Laboratory results taken from US9850273B2, “Combination of estrogens plus antiprogestins with significant partial agonistic effect as an effective treatment of menopausal symptoms and for prevention of the occurrence of breast cancer” (Evestra, Inc., priority 2014, dated 2017).
Like-named read-outs stand apart in the source and are kept apart here.

What was measured:
[1] = test system: ovariectomized C57BL/6 mice; experiment: Mammary gland whole mount analysis in ovariectomized mice; type: in vivo, mouse; conditions: 0.1 and 1.0 mg/kg with E2, 4 weeks
Experimental: (§1) In order to determine the in vivo estrogenic action of EC313 in uterine weight and benign breast development, we have used standard uterine weight bioassay and mammary gland whole mount analysis in ovariectomized mice. […] Five different measurements were obtained from each whole-mount image. Ductal length (millimeters) was measured by drawing and measuring a straight line caliper from the most distal point of the ductal network to the nipple and end buds were identified as large bulbous profiles located at the termini of ducts. […] The reduced estrogenic effect by the treatment of EC313 was further confirmed by the gene expression studies.
(§2) Whole mounts of mammary glands of overictomized C57BL/6 mice treated with E2, EC313 0.1 and 1.0 mg/kg. Magnification—upper panel—10×, lower panel—20×. B, Uterine weight of mice treated for 4 weeks with E2, EC313 0.1 and 1.0 mg/kg. Data represented are average uterine weight in milligrams±SD (*P<0.001 vs E2-control). C-D, Total duct length and terminal end bud counts in the mammary gland whole mounts after 4 weeks of the treatment with test compounds (*P<0.001 vs E2-control).

guinea pig [2] = conditions: in vivo; cited from earlier work
progesterone receptor [3] = target: T1, progesterone receptor (Homo sapiens, UniProt P06401); experiment: PR transactivation assay, agonistic activity (PR luciferase reporter); type: cell-based; conditions: T47D cells; for EC50: stimulant R5020, read-out: EC50
T1 sequence (P06401 679-933 limits assumed): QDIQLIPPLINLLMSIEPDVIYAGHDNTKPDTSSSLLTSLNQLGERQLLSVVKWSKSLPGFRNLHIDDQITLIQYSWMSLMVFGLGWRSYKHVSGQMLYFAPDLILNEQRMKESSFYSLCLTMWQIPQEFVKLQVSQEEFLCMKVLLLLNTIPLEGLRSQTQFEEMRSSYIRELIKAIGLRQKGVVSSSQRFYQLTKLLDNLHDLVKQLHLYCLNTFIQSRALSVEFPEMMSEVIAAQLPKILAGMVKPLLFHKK
Experimental: (§3) Transactivation Assay for Progesterone Agonist and Antagonistic Activity (See Table 1).
Experimental: PR transactivation studies was carried out in human breast cancer (T47D) cells, grown in RPMI medium without phenol red and 5% charcoal stripped fetal bovine serum, transiently transfected with PR luciferase reporter (CCS-6043L signal reporter assay kit, Qiagen). The cells were stimulated R5020 as PR agonist and treated in the presence or absence of the tested compounds for 24 hours. The effect was calculated using dual luciferase assay kit (Promega, WI)) based on RU486 as full antagonist and R5020 as agonist for progesterone receptor.

[4] = test system: ovariectomized C57BL/6 mice; experiment: Uterine weight bioassay in ovariectomized mice; type: in vivo, mouse; conditions: combined with E2, 4 weeks
Experimental: as §1, §2

[5] = test system: ovariectomized C57BL/6 mice; experiment: Gene expression in mammary glands of ovariectomized mice; type: in vivo, mouse
Experimental: as §1
Gene expression in mammary glands of ovariectomized C57BL/6 mice treated with E2, EC313 0.1 and 1.0 mg/kg. Columns are average of relative amount (ΔΔCt) of tested mRNA±SD (n=6) (**P<0.01 vs E2-control, *P<0.001 vs E2-control).

[6] = test system: estradiol-primed immature female rabbits; experiment: McPhail and anti-McPhail tests in rabbits; type: in vivo, rabbit; conditions: for progestational activity (McPhail test): estradiol-primed immature female rabbit; for antiprogestational activity (anti-McPhail test): immature female rabbit
Excerpt: The McPhail test in the immature female rabbit is a well-established model to test progestatational and antiprogestational activity [McPhail 1934).

guinea pig [7] = experiment: Guinea pig model (ovulation inhibition, uterine weight, vagina, ovary, classification); type: in vivo; conditions: for ER-/PR balance vagina.: dose at which the dominance is seen / Uterine Weight at max. dose (10.mg/day s.c.) / ER-/PR balance vagina. / Ovary (CL): guinea pig; for Classification: guinea pig model; for ER-/PR balance vagina. / Ovary (CL): at max. dose (10.mg/day s.c.); for Ovary (CL): CL = corpora lutea
progesterone receptor [8] = target: T2, progesterone receptor (Homo sapiens, UniProt P06401); experiment: PR transactivation assay, antagonistic activity (PR luciferase reporter); type: cell-based; conditions: for Ratio of IC50's: PR agonism / PR antagonism
T2 sequence (P06401 165-933 limits assumed): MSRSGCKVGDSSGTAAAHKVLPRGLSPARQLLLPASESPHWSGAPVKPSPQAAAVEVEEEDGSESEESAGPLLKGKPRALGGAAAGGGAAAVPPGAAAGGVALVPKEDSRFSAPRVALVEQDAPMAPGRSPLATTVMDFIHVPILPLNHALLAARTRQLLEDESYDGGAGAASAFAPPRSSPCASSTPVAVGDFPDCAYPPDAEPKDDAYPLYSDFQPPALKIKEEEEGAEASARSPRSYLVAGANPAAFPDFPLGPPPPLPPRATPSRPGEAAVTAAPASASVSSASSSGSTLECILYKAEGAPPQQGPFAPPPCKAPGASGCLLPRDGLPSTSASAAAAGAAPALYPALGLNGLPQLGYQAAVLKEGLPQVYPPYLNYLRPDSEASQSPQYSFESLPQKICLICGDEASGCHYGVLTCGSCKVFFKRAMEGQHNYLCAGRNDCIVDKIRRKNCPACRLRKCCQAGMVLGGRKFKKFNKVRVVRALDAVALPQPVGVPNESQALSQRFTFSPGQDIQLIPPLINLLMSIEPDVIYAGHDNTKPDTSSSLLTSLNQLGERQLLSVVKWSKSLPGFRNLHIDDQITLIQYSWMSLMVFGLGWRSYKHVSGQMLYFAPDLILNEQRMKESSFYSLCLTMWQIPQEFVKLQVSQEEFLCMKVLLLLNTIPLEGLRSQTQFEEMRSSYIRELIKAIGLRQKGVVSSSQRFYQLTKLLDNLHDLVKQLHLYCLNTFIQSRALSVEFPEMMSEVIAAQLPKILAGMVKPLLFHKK
Experimental: as §3
Experimental: PR transactivation studies was carried out in human breast cancer (T47D) cells, grown in RPMI medium without phenol red and 5% charcoal stripped fetal bovine serum, transiently transfected with PR luciferase reporter (CCS-6043L signal reporter assay kit, Qiagen). The cells were stimulated R5020 as PR agonist and treated in the presence or absence of the tested compounds for 24 hours.

[9] = T47D cells, stimulant R5020, read-out: IC50 Average of 2 expts
[10] = Table 2 summary, read-out: PR antagonism (IC50)

Row | Compound | Agonist rel to R5020 (%) (progesterone receptor [3]) | EC50 (progesterone receptor [3]) [nM] | progestational activity (McPhail test) [6] | antiprogestational activity (anti-McPhail test) [6] | ER-/PR balance vagina.: dose at which the dominance is seen (guinea pig [7]) | Classification (guinea pig [7]) | Uterine Weight at max. dose (10.mg/day s.c.) (guinea pig [7]) | ER-/PR balance vagina. (guinea pig [7]) | Ovary (CL) (guinea pig [7]) | Ratio of IC50's (progesterone receptor [8]) | Antagonist rel to RU486 (%) (progesterone receptor [8]; T47D cells, stimulant R5020) | IC50 (progesterone receptor [8]; [9]) [nM] | IC50 (progesterone receptor [8]; [10]) [nM] | other results
1 | C[C@]12C[C@H](c3ccc(-c4ccoc4)cc3)C3=C4CCC(=O)C=C4CCC3C1CCC21OCCC1=C(F)F (stereo partly shown) [EC-313] | 7.8 | 4.75 | active both as a progestin agonist and antagonist | active both as a progestin agonist and antagonist | ≧0.1 mg | mesoprogestin | 1.13 | PR-domin. | degenerated | 9.4 | 240 | 0.5 | 0.5 | ductal branching and terminal end buds in whole mount analysis [1]: dose dependently reduced; Classification (previous findings, Nickisch et al, 2013) (guinea pig [2]): mesoprogestin; E2 stimulated uterine weight ([4]; 0.1 mg/kg): reduced by two fold; E2 stimulated uterine weight ([4]; 1.0 mg/kg): three fold; PR regulated genes amphiregulin (AREG) and RANKL in mammary glands ([5]; higher dose): significantly inhibited; PR regulated genes amphiregulin (AREG) and RANKL in mammary glands ([5]; lower doses): upregulated in a moderate fashion; E2 regulated genes cyclin D1 and PS2 in mammary glands ([5]; treatment combined with E2): downregulated
2 | C[C@]12C[C@H](c3ccc(-c4cccnc4)cc3)C3=C4CCC(=O)C=C4CCC3C1CCC21OCCC1=C(F)F (stereo partly shown) [EC-312] | 0.73 | 51.5 | active both as a progestin agonist and antagonist | active both as a progestin agonist and antagonist | ≧0.1 mg | mesoprogestin | 1.03 | PR-domin. | degenerated | 81.7 | 160 | 0.625 | 0.63 | progestational activity relative to CDB 2914 ([6]; assumed from McPhail test): more than ten-fold higher
